These results are taken from PMC3493109 (Biochemistry, 2012).

Holding throughout (format): binding
Test [1] concerns the target glyoxylate carboligase (GCL) (Escherichia coli, UniProt P0AEP7, I393A/V51D). The test is described as follows: CD titration at […] nm.
For test [2], the target named is T1, glyoxylate carboligase (GCL) (Escherichia coli, UniProt P0AEP7, I393A). Nature of the test: CD titration at […] nm.
Test [3] deals with T1, glyoxylate carboligase (GCL). The test is described as follows: CD titration at […] nm, Hill fit.

Each structure is given as a SMILES string.

T1 sequence (P0AEP7 2-593 I393A limits assumed): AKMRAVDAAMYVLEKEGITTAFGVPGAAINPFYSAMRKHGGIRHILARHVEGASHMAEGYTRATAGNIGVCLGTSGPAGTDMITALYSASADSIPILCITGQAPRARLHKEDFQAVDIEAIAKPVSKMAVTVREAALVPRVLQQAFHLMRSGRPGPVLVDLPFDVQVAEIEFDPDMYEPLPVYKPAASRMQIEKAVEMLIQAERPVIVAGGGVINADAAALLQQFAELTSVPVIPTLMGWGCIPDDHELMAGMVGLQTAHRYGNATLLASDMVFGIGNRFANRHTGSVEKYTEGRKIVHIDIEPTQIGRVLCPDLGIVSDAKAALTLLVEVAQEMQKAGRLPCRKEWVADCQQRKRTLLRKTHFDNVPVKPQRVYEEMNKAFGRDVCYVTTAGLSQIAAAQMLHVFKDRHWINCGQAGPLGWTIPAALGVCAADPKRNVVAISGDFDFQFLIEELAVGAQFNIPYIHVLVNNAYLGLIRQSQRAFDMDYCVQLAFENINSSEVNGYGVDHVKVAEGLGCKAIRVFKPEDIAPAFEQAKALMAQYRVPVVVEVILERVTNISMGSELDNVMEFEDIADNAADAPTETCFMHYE
glyoxylate carboligase (GCL) (Escherichia coli, UniProt P0AEP7, I393A/V51D), sequence (P0AEP7 2-593 V51D/I393A limits assumed): as the sequence (P0AEP7 2-593 I393A limits assumed) above, with V50D counted along it

For the compound `COP(=O)(O)C(C)=O` [MAP], the Kd was found to be 110 ± 100 µM in test [1] and 1400 ± 90 µM in test [2].
For `CC(=O)C(=O)O` [pyruvate], in test [3], binding was put at a Kd of 8.2 µM.

Usually Kd stands for the concentration at which binding is half-saturated.
